# Tests used:
# [1] = compound: C1CN(CCC1(C(=O)N[C@@H](CCO)C2=CC=C(C=C2)Cl)N)C3=NC=NC4=C3C=CN4 [Capivasertib]; conditions: max 10 µM
# How it was run: (§1)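 After 24 hours at 37°C and 5% CO2 in 1536-well plates holding 7.5 μl of DMEM/F12 or RPMI with 10% FBS, cancer cell lines were dosed for 72 hours, with final DMSO typically 0.2%. Viability came from CellTiter-Glo 2.0 luminescence, scaled between the means of blank wells and DMSO wells. A non-linear mixed effects model fitted a two-parameter logistic curve to each dose response to give the single-agent IC50.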
# [2] = compound: C=CCn1c(=O)c2cnc(Nc3ccc(N4CCN(C)CC4)cc3)nc2n1-c1cccc(C(C)(C)O)n1 [AZD1775]; conditions: max 3 µM
# How it was run: as §1
# [3] = compound: CC(=O)Nc1cccc(-n2c(=O)n(C3CC3)c(=O)c3c(Nc4ccc(I)cc4F)n(C)c(=O)c(C)c32)c1 [Trametinib]; conditions: max 1 µM
# How it was run: as §1
# [4] = compound: CC(=O)c1c(C)c2cnc(Nc3ccc(N4CCNCC4)cn3)nc2n(C2CCCC2)c1=O [Palbociclib]; conditions: max 10 µM
# How it was run: as §1
# [5] = compound: CC(C)n1c(=O)n(C)c2cnc3cc(F)c(-c4ccc(OCCCN5CCCCC5)nc4)cc3c21 [AZD1390]; conditions: max 0.3 µM
# How it was run: as §1
# [6] = compound: CC1(C)CCC(CN2CCN(c3ccc(C(=O)NS(=O)(=O)c4ccc(NCC5CCOCC5)c([N+](=O)[O-])c4)c(Oc4cnc5[nH]ccc5c4)c3)CC2)=C(c2ccc(Cl)cc2)C1 [Venetoclax]; conditions: max 1 µM
# How it was run: as §1
# [7] = compound: CC1=C(C(=CC=C1)Cl)NC(=O)C2=CN=C(S2)NC3=CC(=NC(=N3)C)N4CCN(CC4)CCO [Dasatinib]; conditions: max 2 µM
# How it was run: as §1
# [8] = compound: CC1=CN2[C@@H](C1)C=NC3=CC(=C(C=C3C2=O)OC)OCCCCCOC4=C(C=C5C(=C4)N=C[C@@H]6CC(=CN6C5=O)C)OC [SG3199]; conditions: max 0.001 µM
# How it was run: as §1
# [9] = compound: CCN(CCO)CCCOc1ccc2c(Nc3cc(CC(=O)Nc4cccc(F)c4)[nH]n3)ncnc2c1 [AZD2811]; conditions: max 1 µM
# How it was run: as §1
# [10] = compound: CCc1c2c(nc3ccc(O)cc13)-c1cc3c(c(=O)n1C2)COC(=O)[C@]3(O)CC [SN-38]; conditions: max 0.3 µM
# How it was run: as §1
# [11] = compound: CN(C)CCCOc1ccc(-c2ccc3ncc4c(c3c2)n(C2CCOCC2)c(=O)n4C)cn1 [AZD0156]; conditions: max 3 µM
# How it was run: as §1
# [12] = compound: CN(CC[C@H](CSC1=CC=CC=C1)NC2=C(C=C(C=C2)S(=O)(=O)NC(=O)C3=CC=C(C=C3)N4CCC(CC4)[C@H](C5=CC=CC=C5C6=CC=C(C=C6)Cl)O)S(=O)(=O)C(F)(F)F)CCO [AZD4320]; conditions: max 1 µM
# How it was run: as §1
# [13] = compound: COc1cc(Nc2ncc3c(n2)-c2ccc(Cl)cc2C(c2c(F)cccc2OC)=NC3)ccc1C(=O)O [Alisertib]; conditions: max 10 µM
# How it was run: as §1
# [14] = compound: COc1cc2ncnc(Nc3ccc(F)c(Cl)c3)c2cc1OCCCN1CCOCC1 [Gefitinib]; conditions: max 10 µM
# How it was run: as §1
# [15] = compound: COc1cccc(OCCCN)c1-c1cc(Nc2cnc(C#N)cn2)n[nH]1 [Prexasertib]; conditions: max 1 µM
# How it was run: as §1
# [16] = compound: COc1cccc2c1C(=O)c1c(O)c3c(c(O)c1C2=O)C[C@@](O)(C(=O)CO)C[C@@H]3O[C@H]1C[C@H](N)[C@H](O)[C@H](C)O1 [Doxorubicin]; conditions: max 1 µM
# How it was run: as §1
# [17] = compound: COc1nnc2ccc(N3CCC(c4ccc(OCCN5CCN(C)C(=O)[C@H]5C)cc4)CC3)nn12 [AZD5153]; conditions: max 1 µM
# How it was run: as §1
# [18] = compound: CS(=O)(=O)CCNCc1ccc(-c2ccc3ncnc(Nc4ccc(OCc5cccc(F)c5)c(Cl)c4)c3c2)o1 [Lapatinib]; conditions: max 10 µM
# How it was run: as §1
# [19] = compound: C[C@@H](Nc1cc(F)cc(F)c1)c1cc(C(=O)N(C)C)cc2c(=O)cc(N3CCOCC3)oc12 [AZD8186]; conditions: max 3 µM
# How it was run: as §1
# [20] = compound: C[C@@H](Oc1cc(-c2cnn(C3CCNCC3)c2)cnc1N)c1c(Cl)ccc(F)c1Cl [Crizotinib]; conditions: max 10 µM
# How it was run: as §1
# [21] = compound: C[C@@H](c1ccc2nccn2c1)n1nnc2ncc(-c3cnn(C)c3)nc21 [Savolitinib]; conditions: max 1 µM
# How it was run: as §1
# [22] = compound: C[C@@H]1COCCN1C2=NC(=NC(=C2)C3(CC3)[S@](=N)(=O)C)C4=C5C=CNC5=NC=C4 [AZD6738]; conditions: max 10 µM
# How it was run: as §1
# [23] = compound: Cc1c2c(nn1C)CSCc1cc(n(C)n1)CSc1cc(c3ccccc3c1)OCCCc1c(C(=O)O)n(C)c3c-2c(Cl)ccc13 [AZD5991]; conditions: max 1 µM
# How it was run: as §1
# [24] = compound: Cc1cc2ncnn2cc1Nc1ncc2c(n1)n(C1CCOCC1)c(=O)n2C [AZD7648]; conditions: max 10 µM
# How it was run: as §1
# [25] = compound: Cc1nc(-c2cn3c(n2)-c2ccc(-c4cnn(C(C)(C)C(N)=O)c4)cc2OCC3)n(C(C)C)n1 [Taselisib]; conditions: max 10 µM
# How it was run: as §1
# [26] = compound: Cn1cnc2c(F)c(Nc3ccc(Br)cc3Cl)c(C(=O)NOCCO)cc21 [Selumetinib]; conditions: max 10 µM
# How it was run: as §1
# [27] = compound: NC1(c2ccc(-c3nc4ccn5c(=O)[nH]nc5c4cc3-c3ccccc3)cc2)CCC1 [MK-2206]; conditions: max 10 µM
# How it was run: as §1
# [28] = compound: O=C(c1cc(Cc2n[nH]c(=O)c3ccccc23)ccc1F)N1CCN(C(=O)C2CC2)CC1 [Olaparib]; conditions: max 10 µM
# How it was run: as §1
cell line,measurement,setting,value
OVCA420 (Ovarian Carcinoma),"IC50, cell viability 72 h",[1],> 10 µM
same,"IC50, cell viability 72 h",[2],> 3 µM
same,"IC50, cell viability 72 h",[3],0.156 µM
same,"IC50, cell viability 72 h",[4],> 10 µM
same,"IC50, cell viability 72 h",[5],> 0.3 µM
same,"IC50, cell viability 72 h",[6],> 1 µM
same,"IC50, cell viability 72 h",[7],0.265 µM
same,"IC50, cell viability 72 h",[8],> 0.001 µM
same,"IC50, cell viability 72 h",[9],> 1 µM
same,"IC50, cell viability 72 h",[10],> 0.3 µM
same,"IC50, cell viability 72 h",[11],> 3 µM
same,"IC50, cell viability 72 h",[12],> 1 µM
same,"IC50, cell viability 72 h",[13],> 10 µM
same,"IC50, cell viability 72 h",[14],4.45 µM
same,"IC50, cell viability 72 h",[15],0.178 µM
same,"IC50, cell viability 72 h",[16],> 1 µM
same,"IC50, cell viability 72 h",[17],0.126 µM
same,"IC50, cell viability 72 h",[18],1.33 µM
same,"IC50, cell viability 72 h",[19],> 3 µM
same,"IC50, cell viability 72 h",[20],> 10 µM
same,"IC50, cell viability 72 h",[21],> 1 µM
same,"IC50, cell viability 72 h",[22],> 10 µM
same,"IC50, cell viability 72 h",[23],> 1 µM
same,"IC50, cell viability 72 h",[24],> 10 µM
same,"IC50, cell viability 72 h",[25],0.989 µM
same,"IC50, cell viability 72 h",[26],7.91 µM
same,"IC50, cell viability 72 h",[27],> 10 µM
same,"IC50, cell viability 72 h",[28],> 10 µM
